One experiment deals with TNFα. The experiment is described as follows: TNFα inhibition, LPS-induced PBMCs or CD14+ monocytes, Meso Scale assay. It counts as cell-based. To be noted: LPS 100 ng/mL 18-24 h, read-out: % Inhibition compared to DMSO, TNFα; for inhibition at 1 µM: tested at 1 μM; for inhibition at 10 µM: tested at 10 μM. The method, then: (§1) Either frozen primary blood mononuclear cells (PBMCs) or frozen CD14+ mobilized peripheral blood monocytes were purchased from AllCells (PB003F, Normal Peripheral Blood MNC (Alameda, Calif.)). Cells were quick thawed, washed 1-time with RPMI-1640 (10% FBS/1% Pen-Strep) and plated in 96 well plates at 200,000 cells per well. Cells were pretreated with DMSO only or with the indicated compound for 1 h and then induced with 100 ng/mL lipopolysaccharide (LPS) for 18-24 h. The supernatant was analyzed for IL-1β, IL-6, and TNFα, using Meso Scale assay according to manufacturer's protocol. The negative control wells were treated with DMSO.
(§2) IL-1β, IL-6 and TNFα activities were tested at two different concentrations (1 μM and 10 μM) and the results are shown in Tables 2 and 3 respectively.

For a further experiment, the system named is IL-1β. The experiment is described as follows: IL-1β inhibition, LPS-induced PBMCs or CD14+ monocytes, Meso Scale assay. In kind it is cell-based. The settings on record: LPS 100 ng/mL 18-24 h, read-out: % Inhibition compared to DMSO, IL-1β; for inhibition at 1 µM: tested at 1 μM; for inhibition at 10 µM: tested at 10 μM. The method, then: as §1, §2
A further experiment relates to IL-2. Kind of experiment: IL-2 inhibition assay, anti-CD3 (OKT3) stimulated PBMCs, Mesoscale IL-2 analysis. To be noted: Homo sapiens, PBMC, PBMCs on anti-CD3, 24 h, fold difference from DMSO control, read-out: IL-2, % Induction compared to DMSO. It counts as cell-based, human. How it is done:
For the IL-2 analysis, 96 well plates were precoated with 1 μg/mL anti-human CD3 antibody (OKT3, eBioscience Inc., San Diego, Calif.). After washing with PBS, the indicated compound was added (50 μL/well) followed by PBMCs diluted at 3-4 million cells/mL (150 μL/well). Plates were incubated for 24 h and the supernatants collected for Mesoscale IL-2 analysis. IL-2 activity is measured as fold difference from the DMSO control. […]
In Table 4, the fold-change values are reported as “A”, “B”, “C”, or “D”. “A” represents a fold-change value of equal to or less than 0.5 (value≤0.5); “B” represents a fold-change value of more than 0.5 and equal to or less than 1 (0.5<value≤1); “C” represents a fold-change value of more than 1 and less than 1.5 (1<value<1.5); and “D” represents a fold-change value of equal to or more than 1.5 (value≥1.5).

Another experiment has as its target T1, Ikaros (Homo sapiens, UniProt Q13422+Q96SW2).
T1 construct: endogenous in cells; host or cells: MV-4-11
Kind of experiment: Western blot, degradation of cellular Ikaros in MV-4-11 cells. It counts as cell-based. The settings on record: MV4-11, tested at 1 μM, 6-8 hours, read-out: % Degradation compared to DMSO, Ikaros. How it is done: (§3) MV-4-11 cells were grown in RPMI 1640 media supplemented with 10% fetal bovine serum, streptomycin and penicillin.
(§4) Cells were cultured at approximately 10^6 cells per mL and incubated in DMSO or the indicated compounds for 6-8 hours. Whole cell extracts were prepared using RIPA lysis buffer according to manufacturer's protocol (Pierce). Briefly, 4×10^6 cells were washed once in PBS, the cell pellets were resuspended in RIPA lysis buffer and allowed to incubate for 15 minutes on ice. Cells debris was removed by centrifugation and the cleared whole cell lysates were transferred to new tubes for further analysis.
(§5) For Western blot analysis, whole cell protein extracts were separated on 4-12% SDS-polyacrylamide gels, transferred to nitrocellulose and probed with the indicated primary antibodies. Membranes were subsequently washed and probed with the appropriate IRDye secondary antibodies (LI-COR). The signal was detected using the Odyssey Imaging System (LI-COR).
(§6) The following antibodies were used in these studies: Anti-PDE6D antibody: Santa Cruz Biotechnology, sc-166854 (Dallas, Tex.); Anti-Ikaros: Abcam, ab191394 (Cambridge, Mass.); anti-CK1α antibody: Abcam, ab108296 (Cambridge, Mass.); β-Actin (8H10D10) mouse monoclonal antibody: Cell Signaling Technology, #3700 (Danvers, Mass.); IRDye 680RD Goat anti-rabbit antibody: LI-COR, 926-68071 (Lincoln, Nebr.); and IRDye 800CW Goat anti-mouse antibody: LI-COR, 926-32210 (Lincoln, Nebr.).
(§7) The % degradation values are reported as “A”, “B”, “C”, or “D.” “A” represents a % degradation value of less than 25% (value<25%); “B” represents a % degradation value of equal to or more than 25% and less than 50% (25%≤value<50%); “C” represents a % degradation value of equal to or more than 50% and less than 75% (50%≤value<75%); and “D” represents a % degradation value of equal to or more than 75% (value≥75%). […] was used as control.

A further experiment addresses T2, CK1α (Homo sapiens, UniProt P48729+Q96SW2).
T2 construct: endogenous in cells; host or cells: MV-4-11
The experiment is described as follows: Western blot, degradation of cellular CK1α in MV-4-11 cells. The settings on record: MV4-11, tested at 1 μM, 6-8 hours, read-out: % Degradation compared to DMSO, CK1α. In kind it is cell-based. The method, then:
as §3, §4, §5, §6, §7

For a further experiment, the target named is T3, PDE6D (Homo sapiens, UniProt O43924+Q96SW2).
T3 construct: endogenous in cells; host or cells: MV-4-11
T3 sequence (O43924 whole entry): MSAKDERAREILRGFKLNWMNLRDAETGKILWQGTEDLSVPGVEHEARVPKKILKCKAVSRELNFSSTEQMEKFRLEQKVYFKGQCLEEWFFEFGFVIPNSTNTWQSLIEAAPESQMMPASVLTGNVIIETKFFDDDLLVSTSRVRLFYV
T3 sequence (Q96SW2 whole entry): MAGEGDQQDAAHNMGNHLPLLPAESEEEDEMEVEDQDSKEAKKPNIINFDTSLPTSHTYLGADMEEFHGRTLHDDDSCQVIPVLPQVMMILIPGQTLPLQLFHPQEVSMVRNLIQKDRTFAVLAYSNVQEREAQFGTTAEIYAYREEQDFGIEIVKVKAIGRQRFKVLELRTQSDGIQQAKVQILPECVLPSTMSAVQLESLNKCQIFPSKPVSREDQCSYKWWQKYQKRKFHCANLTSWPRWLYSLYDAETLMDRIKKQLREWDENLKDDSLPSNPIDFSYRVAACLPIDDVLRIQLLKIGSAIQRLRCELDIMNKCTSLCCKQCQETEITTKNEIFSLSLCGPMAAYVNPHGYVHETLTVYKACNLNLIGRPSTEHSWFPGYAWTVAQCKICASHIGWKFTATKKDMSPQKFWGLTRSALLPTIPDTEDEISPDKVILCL
T3 sequence (Q16531 whole entry partner): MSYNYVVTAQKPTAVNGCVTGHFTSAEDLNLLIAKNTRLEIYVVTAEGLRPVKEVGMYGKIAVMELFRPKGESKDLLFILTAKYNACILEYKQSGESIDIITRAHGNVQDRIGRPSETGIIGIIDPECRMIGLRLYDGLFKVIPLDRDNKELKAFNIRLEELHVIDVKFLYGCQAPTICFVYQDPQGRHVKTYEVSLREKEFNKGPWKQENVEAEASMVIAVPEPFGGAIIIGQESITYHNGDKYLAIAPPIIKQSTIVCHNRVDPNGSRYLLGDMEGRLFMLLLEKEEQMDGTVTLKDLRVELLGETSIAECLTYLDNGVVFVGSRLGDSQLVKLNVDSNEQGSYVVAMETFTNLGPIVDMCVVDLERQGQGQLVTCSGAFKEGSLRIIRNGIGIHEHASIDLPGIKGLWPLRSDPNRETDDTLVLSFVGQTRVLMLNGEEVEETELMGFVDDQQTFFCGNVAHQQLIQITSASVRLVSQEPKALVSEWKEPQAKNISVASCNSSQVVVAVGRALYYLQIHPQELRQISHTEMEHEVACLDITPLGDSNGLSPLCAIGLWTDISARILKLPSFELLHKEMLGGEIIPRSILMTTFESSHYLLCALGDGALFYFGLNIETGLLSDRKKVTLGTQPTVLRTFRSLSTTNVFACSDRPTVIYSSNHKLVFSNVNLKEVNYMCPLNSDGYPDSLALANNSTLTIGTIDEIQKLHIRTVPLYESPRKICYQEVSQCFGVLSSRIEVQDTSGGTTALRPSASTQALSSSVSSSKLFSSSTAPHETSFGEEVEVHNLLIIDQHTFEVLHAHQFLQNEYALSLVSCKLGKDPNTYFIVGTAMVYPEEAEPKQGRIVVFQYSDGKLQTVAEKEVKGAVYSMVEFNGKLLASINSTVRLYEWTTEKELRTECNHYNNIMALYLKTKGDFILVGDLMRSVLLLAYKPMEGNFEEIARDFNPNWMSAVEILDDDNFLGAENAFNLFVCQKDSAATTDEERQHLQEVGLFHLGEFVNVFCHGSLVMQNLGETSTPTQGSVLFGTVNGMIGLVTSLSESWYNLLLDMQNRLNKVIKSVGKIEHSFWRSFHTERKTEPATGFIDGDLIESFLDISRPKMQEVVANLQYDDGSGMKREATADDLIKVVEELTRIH
The experiment is described as follows: Western blot, degradation of cellular PDE6D in MV-4-11 cells. In kind it is cell-based. The settings on record: MV4-11; tested at 1 μM, MV-4-11 cells, 6-8 hours; read-out: % Degradation compared to DMSO, PDE6D. The method, then: as §3, §4, §5, §6, §7

The next experiment relates to IL-6. Kind of experiment: IL-6 inhibition, LPS-induced PBMCs or CD14+ monocytes, Meso Scale assay. In kind it is cell-based. The settings on record: LPS 100 ng/mL 18-24 h, read-out: % Inhibition compared to DMSO, IL-6; for inhibition at 1 µM: tested at 1 μM; for inhibition at 10 µM: tested at 10 μM. The method, then:
as §1, §2

Some results are limits rather than exact numbers.

Here are results for ten molecules from patent US11352338B2, “Substituted isoindolinones” (BioTheryX, Inc., priority 2018, dated 2022).

T1 sequence (Q13422 whole entry): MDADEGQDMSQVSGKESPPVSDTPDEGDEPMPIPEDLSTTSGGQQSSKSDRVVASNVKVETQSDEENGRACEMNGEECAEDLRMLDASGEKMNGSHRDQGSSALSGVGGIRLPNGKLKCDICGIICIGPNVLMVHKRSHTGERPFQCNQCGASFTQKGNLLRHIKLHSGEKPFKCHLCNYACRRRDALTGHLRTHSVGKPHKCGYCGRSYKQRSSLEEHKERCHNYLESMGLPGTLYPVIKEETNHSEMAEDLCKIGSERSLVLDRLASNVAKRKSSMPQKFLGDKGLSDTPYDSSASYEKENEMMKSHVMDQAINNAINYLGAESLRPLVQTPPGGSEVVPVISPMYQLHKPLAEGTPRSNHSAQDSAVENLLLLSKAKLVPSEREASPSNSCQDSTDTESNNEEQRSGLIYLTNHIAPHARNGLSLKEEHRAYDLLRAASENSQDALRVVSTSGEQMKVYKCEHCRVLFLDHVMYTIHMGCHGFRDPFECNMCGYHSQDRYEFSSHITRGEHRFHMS
T1 sequence (Q96SW2 whole entry): as the sequence (Q96SW2 whole entry) above
T1 sequence (Q16531 whole entry partner): as the sequence (Q16531 whole entry partner) above
T2 sequence (P48729 whole entry): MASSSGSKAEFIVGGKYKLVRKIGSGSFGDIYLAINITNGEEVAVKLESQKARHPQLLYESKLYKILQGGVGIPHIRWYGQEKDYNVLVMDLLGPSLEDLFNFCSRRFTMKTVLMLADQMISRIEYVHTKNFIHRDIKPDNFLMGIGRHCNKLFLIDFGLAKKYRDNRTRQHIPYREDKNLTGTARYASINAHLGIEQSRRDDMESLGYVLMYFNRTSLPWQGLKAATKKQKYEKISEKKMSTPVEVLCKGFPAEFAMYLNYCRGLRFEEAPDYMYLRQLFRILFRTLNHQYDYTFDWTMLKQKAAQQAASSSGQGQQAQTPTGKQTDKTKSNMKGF
T2 sequence (Q96SW2 whole entry): as the sequence (Q96SW2 whole entry) above
T2 sequence (Q16531 whole entry partner): as the sequence (Q16531 whole entry partner) above

Turning to `O=C1CCC(N2Cc3c(cc(F)cc3C3CCCCCC3)C2=O)C(=O)N1` (centres unmarked) [Compound 15], the inhibition at 1 µM with TNFα, with IL-1β and with IL-6 was below 10% in each case. The inhibition at 10 µM with TNFα, in the experiment with IL-1β and in the experiment on IL-6 was below 10% throughout. In addition, the fold induction at 1 µM with IL-2 was in the range of 0.5 to 1. Further, the fold induction at 10 µM with IL-2 was at most 0.5. The figures for the Dmax at 1 µM at Ikaros, at CK1α and on PDE6D were 25 to 50%, 50 to 75% and at least 75%, respectively.

For `CC1(N2Cc3c(cc(F)cc3C3CCCC3)C2=O)CCC(=O)NC1=O` (centres unmarked) [Compound 4, 3-(4-cyclopentyl-6-fluoro-1-oxoisoindolin-2-yl)-3-methylpiperidine-2,6-dione], the inhibition at 1 µM in the experiment with TNFα was 25 to 50%; in the experiment with IL-1β, below 10%; in the experiment with IL-6, below 10%. Further, the values for the inhibition at 10 µM in the experiment on TNFα, in the experiment on IL-1β and in the experiment with IL-6 were above 50%, 10 to 25% and below 10%, respectively. For the same molecule, the fold induction at 1 µM in the experiment on IL-2 fell in the range of 0.5 to 1. Besides, the fold induction at 10 µM in the experiment with IL-2 was in the range of 0.5 to 1. Also, the Dmax at 1 µM at Ikaros, at CK1α and at PDE6D was below 25% each time.

In the case of `O=C1CCC(N2Cc3c(cc(Cl)cc3C3CCCC3)C2=O)C(=O)N1` (centres unmarked) [Compound 28], the inhibition at 1 µM is 10 to 25% in the experiment on TNFα, below 10% in the experiment with IL-1β and below 10% in the experiment with IL-6. The inhibition at 10 µM in the experiment with TNFα was 10 to 25%; with IL-1β, below 10%; with IL-6, 10 to 25%. In addition, the fold induction at 1 µM in the experiment with IL-2 lay in the range of 1 to 1.5. Moreover, in the experiment with IL-2, the fold induction at 10 µM lay within 0.5 to 1. The Dmax at 1 µM at Ikaros, on CK1α and at PDE6D was below 25% in each case.

Take `CC1CC(=O)NC(=O)C1N1Cc2c(cc(F)cc2C2CCCC2)C1=O` (centres unmarked) [Compound 6, 3-(4-cyclopentyl-6-fluoro-1-oxoisoindolin-2-yl)-4-methylpiperidine-2,6-dione]: the inhibition at 1 µM in the experiment with TNFα is 10 to 25%; in the experiment on IL-1β it was below 10%; in the experiment with IL-6 it was below 10%. The inhibition at 10 µM in the experiment with TNFα was above 50%; with IL-1β, 10 to 25%; in the experiment on IL-6, below 10%. Also, the fold induction at 1 µM in the experiment on IL-2 lay in the range of 0.5 to 1. For the same molecule, in the experiment with IL-2, the fold induction at 10 µM is at most 0.5. Besides, the Dmax at 1 µM on Ikaros is below 25%; at CK1α, 25 to 50%; on PDE6D it was at least 75%.

In the case of `O=C1CCC(N2Cc3c(cccc3C3CCCC3)C2=O)C(=O)N1` (centres unmarked) [Compound 2], the inhibition at 1 µM with TNFα is below 10%; in the experiment with IL-1β, below 10%; in the experiment with IL-6, 10 to 25%. Also, the inhibition at 10 µM in the experiment on TNFα, in the experiment on IL-1β and in the experiment on IL-6 was 10 to 25% throughout. Further, the fold induction at 1 µM in the experiment with IL-2 was 0.5 to 1. The fold induction at 10 µM in the experiment with IL-2 is 0.5 to 1. For the same molecule, the values for the Dmax at 1 µM at Ikaros, on CK1α and on PDE6D were below 25%, 25 to 50% and at least 75%, respectively.

As to `O=C1CCC(N2Cc3c(cc(F)cc3C3CCCCC3)C2=O)C(=O)N1` (centres unmarked) [Compound 3], the inhibition at 1 µM with TNFα, in the experiment on IL-1β and with IL-6 was below 10% each time. For the same molecule, the inhibition at 10 µM in the experiment with TNFα, in the experiment on IL-1β and with IL-6 was below 10% each time. The fold induction at 1 µM in the experiment with IL-2 was at most 0.5. Further, in the experiment on IL-2, the fold induction at 10 µM was at most 0.5. Moreover, the Dmax at 1 µM is 25 to 50% on Ikaros, 50 to 75% at CK1α and at least 75% at PDE6D.

As to `O=C1CCC(N2Cc3c(cc(F)cc3C3CC3)C2=O)C(=O)N1` (centres unmarked) [Compound 5], the inhibition at 1 µM was 25 to 50% with TNFα, 25 to 50% in the experiment on IL-1β and below 10% in the experiment on IL-6. The inhibition at 10 µM was above 50% in the experiment with TNFα, above 50% with IL-1β and below 10% in the experiment on IL-6. The fold induction at 1 µM in the experiment on IL-2 is at most 0.5. The fold induction at 10 µM in the experiment on IL-2 is at most 0.5. Moreover, the results for the Dmax at 1 µM at Ikaros, at CK1α and at PDE6D were 25 to 50%, at least 75% and at least 75%, respectively.

Consider `O=C1CCC(N2Cc3c(cccc3C3CC3)C2=O)C(=O)N1` (centres unmarked) [Compound 13], for which the inhibition at 1 µM in the experiment with TNFα is above 50%; in the experiment on IL-1β it was 25 to 50%; in the experiment on IL-6, below 10%. Moreover, the inhibition at 10 µM in the experiment on TNFα was above 50%; in the experiment on IL-1β, 25 to 50%; in the experiment on IL-6, below 10%. Further, in the experiment with IL-2, the fold induction at 1 µM is at least 1.5. In addition, the fold induction at 10 µM in the experiment on IL-2 is at least 1.5. In addition, the Dmax at 1 µM at Ikaros, at CK1α and on PDE6D was 50 to 75% throughout.

With `C[C@H](c1cccc2c1CN(C1CCC(=O)NC1=O)C2=O)C(F)(F)F` (some centres unmarked) [Compound 31], the inhibition at 1 µM with TNFα, with IL-1β and in the experiment with IL-6 was below 10% throughout. Besides, the inhibition at 10 µM is 10 to 25% with TNFα, below 10% with IL-1β and below 10% with IL-6. In addition, the fold induction at 1 µM in the experiment on IL-2 was 0.5 to 1. For the same molecule, in the experiment on IL-2, the fold induction at 10 µM is 0.5 to 1. Besides, the Dmax at 1 µM at Ikaros is 50 to 75%; at CK1α, 25 to 50%; on PDE6D, below 25%.

As for `C[C@@H](c1cccc2c1CN(C1CCC(=O)NC1=O)C2=O)C(F)(F)F` (some centres unmarked) [Compound 30], the inhibition at 1 µM in the experiment with TNFα, in the experiment on IL-1β and in the experiment on IL-6 was below 10% throughout. Also, the figures for the inhibition at 10 µM with TNFα, with IL-1β and in the experiment with IL-6 were 10 to 25%, below 10% and below 10%, respectively. The fold induction at 1 µM in the experiment with IL-2 lay in the range of 1 to 1.5. In the experiment with IL-2, the fold induction at 10 µM lay in the range of 0.5 to 1. Besides, the figures for the Dmax at 1 µM on Ikaros, on CK1α and at PDE6D were 25 to 50%, below 25% and below 25%, respectively.
